In US20070009571A1, “Novel haptotactic peptides” (Hadasit Medical Research Services & Development Ltd., priority 1998, published 2007):
No end group written: not given here.

What was measured:
human fibroblasts (HF) = assay: Uptake of FITC-peptides by fluorescence microscopy; type: cell-based; set-up: binding and internalization of dissolved FITC-peptide, fluorescent microscopy: dose or concentration left out as unconfirmed
Procedure: (§1) The cells examined were grown in 6-well plates on cover slips to reach near confluence. At the time of examination, the cover slips were inverted and put on a microscope slide supported by 2 thin spacers so that a thin gap (˜2 mm) was left between the cells on the coverslip and the slide. This was filled with culture medium. […] At different time points, medium was replaced with fresh medium and the fluorescence was viewed and photographed, using an Olympus fluorescent microscope system.
(§2) Accumulation of the FITC-peptide in the cytoplasm and around the nucleus was clearly observed. […] After a longer exposure of more than 1 hour or with fixed cells, accumulation of the FITC-peptide in the cytoplasm and around the nucleus was clearly observed (data not shown). In most cases, the fluorescence became concentrated in discrete cytoplasmic vesicles.

EC (BAEC) = assay: Uptake of FITC-peptides by fluorescence microscopy; type: cell-based, bovine; settings: 100 μg/ml, 30 min and 60 min
Procedure: as §1, §2

EC cells (BAEC) = assay: FACS analysis of binding of FITC-labeled peptides; type: cell-based, bovine; settings: 10 μg/ml or 100 μg/ml, medium with 0.1% albumin
Procedure: EC and HF cell monolayers were washed and then incubated with trypsin-versene. Cells were then washed with growth medium and resuspended in medium with 0.1% albumin. FITC-labeled peptide-Cβ (SEQ ID NO:1) was incubated with 5×10^5 EC cells (10 μg/ml or 100 μg/ml) or with 2.5×10^5 HF cells (100 μg/ml) in medium with 0.1% albumin. FITC-labeled peptide-CαE (SEQ ID NO:3) and Cα (SEQ ID NO:4) (10 μg/ml) was incubated with 5×10^5 EC cells in medium with 0.1% albumin. Cells were then washed with PBS and 1% albumin. Cells were resuspended in PBS and 1% albumin and then filtered through a mesh for FACS analysis, in which the FITC tluorescence was measured for each cell.
The control is without FITC-labeled peptide (background fluorescence).
In competition experiments, cells were incubated with various concentrations of unlabeled Cβ (SEQ ID NO:1) for 15 mins, an aliquot of Cβ^FITC (4 mM) was added and the sample was subjected to FACS analysis. […] The Cβ^FITC (SEQ ID NO:1) uptake experiments best fitted a linear-quadratic curve-fit.

FITC-CαE: FITC-labeled peptide CαE (SEQ ID NO:3) (RGADYSLRAVRMKIRPLVTQ; not fully specified (N-terminus); also: FITC label, position not given here)
uptake of FITC-peptide by fluoro-microscopy (human fibroblasts (HF); 10 μM, human fibroblasts): uptake
binding and internalization of dissolved FITC-peptide, fluorescent microscopy (human fibroblasts (HF); HF, 30 min and 60 min): binding and internalization
binding and internalization of dissolved FITC-peptide, fluorescent microscopy (EC (BAEC)): binding and internalization
binding/uptake of FITC-labeled peptide by FACS, in words (EC cells (BAEC)): taken up by cells
